Laboratory results as given in paper PMC12523303, “Multi-Fused S,N-Heterocyclic Compounds for Targeting α-Synuclein Aggregates” (Cells, 2025).
Values joined by “and” are separate entries in the source; they are usually repeats but may differ in a detail not shown here. Equal values may be shown once. Read-outs that look alike come from different tables or passages of the source.

Tests used:
[1] = biological target: post-mortem PD brain tissue; parameters: method as in PMID 38354298; conditions: cited from earlier work
[2] = biological target: T1, α-synuclein (α-syn) aggregates in PD brain homogenates (Homo sapiens, UniProt P37840); parameters: method as in PMID 38354298; conditions: parent ligand, value printed in Figure 2; cited from earlier work
T1 construct: Anterior cingulate cortex tissue from a Parkinson’s disease (PD) case; tissue Banner Sun Health Research Institute (Dr. Thomas Beach); host or cells: post-mortem human PD anterior cingulate cortex homogenate

[3] = biological target: T2, MDR1 (Homo sapiens, UniProt P08183); assay: Bidirectional transport in MDR1-transfected MDCK cell monolayers; format: in vitro ADME; conditions: dog; for recovery at 2 μM: MDCK-MDR1, MDR1-MDCK permeability assay; for Papp A→B at 2 μM / Papp B→A at 2 μM: MDCK-MDR1; for Papp A→B at 2 μM: apical-to-basolateral, read-out: A→B apparent permeability; for Papp B→A at 2 μM: basolateral-to-apical, read-out: B→A apparent permeability
T2 construct: host or cells: MDCK cells
Description: (§1) MDR1-transfected MDCK cell monolayers, cultured for 5 days and obtained from the Netherlands Cancer Institute, were used for the in vitro bidirectional transport studies. Cells were maintained in Dulbecco’s Modified Eagle Medium (DMEM) supplemented with 10% fetal bovine serum (FBS) and 1% penicillin–streptomycin. They were subcultured every other day at a split ratio of 1:3 to 1:5. For transport experiments, cells were seeded onto polycarbonate Transwell® filter inserts (Millipore) in 24-well plates at a density of 500,000 cells per well. After 24 h, the medium was replaced, and the cells were cultured for an additional 4 days to allow tight junction formation before initiating the transport assays. Transport studies were performed in duplicate using a 2 μM concentration of test compound, in both apical-to-basolateral (A→B) and basolateral-to-apical (B→A) directions. The apparent permeability coefficient (P_app) was calculated using the following equation: Papp (cm/s) = (Vr/C0) (1/S) (dC/dt)
(§2) • P_app is the apparent permeability, • V_r is the volume of the receiver chamber, • C0 is the initial concentration in the donor chamber, • S is the surface area of the cell monolayer (0.7 cm^2; for a 24-well insert), • dC/dt is the rate of appearance of the compound in the receiver chamber.
(§3) The efflux ratio was calculated as: (1) Efflux ratio=Papp B−A/Papp A−B
(§4) Bioanalysis was carried out using LC-MS/MS.

[4] = biological target: T3, MDR1-transfected MDCK cells (Homo sapiens, UniProt P08183); assay: as above; format: in vitro ADME; conditions: MDR1-MDCK
T3 construct: host or cells: MDCK cells
Description: as §1, §2, §3, §4

[5] = biological target: T1, α-synuclein (α-syn) aggregates in PD brain homogenates; assay: In vitro competition (Ki) assay vs [3H]asyn-44 in PD brain homogenates; format: binding; conditions: 1 nM [3H]asyn-44
Description: Anterior cingulate cortex tissue from a Parkinson’s disease (PD) case was generously provided by Dr. Thomas Beach at the Banner Sun Health Research Institute in Arizona, USA. […] Preparation of the frozen blocks for binding assays followed previously established protocols.
The equilibrium inhibition constants (Ki) for the unlabelled compounds were measured against [^3H]asyn-44 using our previously reported procedure. For these assays, frozen aliquots of homogenized human brain tissue (stored at −80 °C) were used. Homogenates were prepared at 10 mg/mL in phosphate-buffered saline, then diluted with 50 mM Tris buffer (pH 7.0) to a working concentration of 1 mg/mL.
Unlabeled competitor compounds were initially dissolved in DMSO at 400 μM, then diluted with Tris buffer to 20 μM, resulting in a 5% DMSO concentration. A serial dilution series (ranging from 6 μM to 4 nM) was prepared in the same 5% DMSO/Tris buffer solution to maintain consistent solvent conditions throughout the assay.
To perform the binding assay, 50 μL of the appropriately diluted competitor solution was mixed with 50 μL of [^3H]asyn-44 (1 nM final concentration) and 800 μL of Tris buffer containing 20% ethanol and 0.1% bovine serum albumin (BSA). Then, 100 μL of the 1 mg/mL brain homogenate was added, bringing the final tissue concentration to 100 μg/mL. The reaction mixtures were incubated at room temperature for 60 min before filtration through Whatman GF/B glass fibre filters using a Brandel M-24R cell harvester (Gaithersburg, MD, USA). Filters were washed three times with 3 mL of Tris buffer containing 20% ethanol and 0.1% BSA.
After washing, retained radioactivity was measured using CytoScint-ES scintillation fluid following thorough vortexing. Specific binding was calculated by correcting for nonspecific binding (as described later), and the amount of bound radioligand was derived from the filter-associated radioactivity and the molar activity of the tritiated compound.

[6] = biological target: [^3H]Z-2340 binding in post-mortem Alzheimer’s disease (AD) brain tissue; assay: Competition binding vs [3H]Z-2340 in post-mortem AD brain tissue; parameters: species or system human
Description: (§5) We assessed the binding affinity of LMD-022 using a radioligand competition binding assay in post-mortem PD brain tissues. […] To evaluate potential off-target binding in AD brain tissues, we conducted additional binding assays using a panel of AD-related radioligands, including [^3H]PiB, [^3H]MK-6240, [^3H]Z-2340, and [^3H]PI-2620. […] Our future work will aim to optimize chemical yields of lead compounds, including LMD-022, and carry out α-syn fibril seed amplification assays or immunohistochemical co-localization with pathologic α-syn to verify target engagement as well as radiolabel lead molecules for in vivo PET imaging studies.

[7] = Metabolic stability in human liver microsomes; format: in vitro ADME; conditions: for t1/2: human liver microsomes (h-MR); for % disappearance at 5 minutes relative to time zero / % disappearance at 15 minutes relative to time zero / % disappearance at 30 minutes relative to time zero / Clearance Category / remaining at 5 min, 1 μM / remaining at 0.5 h, 1 μM: human liver microsomes; for Clearance Category: as per Cyprotex Website; for half-life at 1 μM: human, pH 7.4, human liver microsomes (h-MR); for half-life at 1 μM / remaining at 5 min, 1 μM / remaining at 0.5 h, 1 μM: pooled human liver microsomes; for remaining at 5 min, 1 μM / remaining at 0.5 h, 1 μM: pH 7.4; for % disappearance at 30 minutes relative to time zero / remaining at 0.5 h, 1 μM: 30 min
Description: Metabolic stability assays were conducted using pooled human liver microsomes (HLMs) to evaluate the rate of in vitro metabolic degradation of the test compound. Incubations were carried out in duplicate (n = 2) at a final compound concentration of 1 μM. The protein concentration of the microsomal suspension was adjusted to 0.5 mg/mL using phosphate buffer (100 mM, pH 7.4). Reactions were initiated by the addition of NADPH (final concentration 1 mM) and incubated at 37 °C. Aliquots were taken at four time points: 0, 5, 15, and 30 min. Each reaction was quenched with ice-cold acetonitrile containing internal standard, followed by centrifugation to pellet proteins. Supernatants were analyzed using a validated LC-MS/MS method to determine the concentration of the parent compound at each time point. […] Metabolic stability was assessed by calculating the percentage of the parent compound remaining at each time point. The elimination rate constant (k), half-life (t1/2), and intrinsic clearance (CLint) were derived from the natural log-transformed concentration vs. time data, assuming first-order kinetics.

[8] = biological target: [^3H]PI-2620 binding in post-mortem Alzheimer’s disease (AD) brain tissue (Homo sapiens, UniProt P10636); assay: Competition binding vs [3H]PI-2620 in post-mortem AD brain tissue
Description: as §5

[9] = biological target: T4, [^3H]PiB binding in post-mortem Alzheimer’s disease (AD) brain tissue (Homo sapiens, UniProt P05067); assay: Competition binding vs [3H]PiB in post-mortem AD brain tissue
T4 construct: from tissue; host or cells: post-mortem AD brain tissue
Description: as §5

[10] = biological target: T1, α-synuclein (α-syn) aggregates in PD brain homogenates; assay: Two point screening assay (30 nM and 300 nM) vs [3H]asyn-44 in human PD brain homogenates; format: binding; conditions: for remaining activity at 0.03 µM: 30 nM competitor; for remaining activity at 0.3 µM: 300 nM competitor
Description: Screening assays for the test compounds were performed at two concentrations—30 nM and 300 nM—using unlabelled competitors in human PD brain homogenates against [^3H]asyn-44 as previously described. […] Each assay was conducted in triplicate for both concentrations to ensure reproducibility and statistical reliability.

[11] = biological target: [^3H]MK-6240 binding in post-mortem Alzheimer’s disease (AD) brain tissue (Homo sapiens, UniProt P10636); assay: Competition binding vs [3H]MK-6240 in post-mortem AD brain tissue
Description: as §5

[12] = biological target: α-syn fibrils; parameters: method as in PMID 40256311; conditions: cited from earlier work
[13] = biological target: PD brain tissue; parameters: method as in PMID 40256311; conditions: cited from earlier work
[14] = system: DLB tissue; parameters: method as in PMID 38843838; conditions: cited from earlier work
[15] = biological target: α-syn fibrils; parameters: method as in PMID 37421950; conditions: cited from earlier work
[16] = A→B, read-out: Calculated recovery, A→B direction
[17] = B→A, read-out: Calculated recovery, B→A direction

T2 sequence (P08183 whole entry): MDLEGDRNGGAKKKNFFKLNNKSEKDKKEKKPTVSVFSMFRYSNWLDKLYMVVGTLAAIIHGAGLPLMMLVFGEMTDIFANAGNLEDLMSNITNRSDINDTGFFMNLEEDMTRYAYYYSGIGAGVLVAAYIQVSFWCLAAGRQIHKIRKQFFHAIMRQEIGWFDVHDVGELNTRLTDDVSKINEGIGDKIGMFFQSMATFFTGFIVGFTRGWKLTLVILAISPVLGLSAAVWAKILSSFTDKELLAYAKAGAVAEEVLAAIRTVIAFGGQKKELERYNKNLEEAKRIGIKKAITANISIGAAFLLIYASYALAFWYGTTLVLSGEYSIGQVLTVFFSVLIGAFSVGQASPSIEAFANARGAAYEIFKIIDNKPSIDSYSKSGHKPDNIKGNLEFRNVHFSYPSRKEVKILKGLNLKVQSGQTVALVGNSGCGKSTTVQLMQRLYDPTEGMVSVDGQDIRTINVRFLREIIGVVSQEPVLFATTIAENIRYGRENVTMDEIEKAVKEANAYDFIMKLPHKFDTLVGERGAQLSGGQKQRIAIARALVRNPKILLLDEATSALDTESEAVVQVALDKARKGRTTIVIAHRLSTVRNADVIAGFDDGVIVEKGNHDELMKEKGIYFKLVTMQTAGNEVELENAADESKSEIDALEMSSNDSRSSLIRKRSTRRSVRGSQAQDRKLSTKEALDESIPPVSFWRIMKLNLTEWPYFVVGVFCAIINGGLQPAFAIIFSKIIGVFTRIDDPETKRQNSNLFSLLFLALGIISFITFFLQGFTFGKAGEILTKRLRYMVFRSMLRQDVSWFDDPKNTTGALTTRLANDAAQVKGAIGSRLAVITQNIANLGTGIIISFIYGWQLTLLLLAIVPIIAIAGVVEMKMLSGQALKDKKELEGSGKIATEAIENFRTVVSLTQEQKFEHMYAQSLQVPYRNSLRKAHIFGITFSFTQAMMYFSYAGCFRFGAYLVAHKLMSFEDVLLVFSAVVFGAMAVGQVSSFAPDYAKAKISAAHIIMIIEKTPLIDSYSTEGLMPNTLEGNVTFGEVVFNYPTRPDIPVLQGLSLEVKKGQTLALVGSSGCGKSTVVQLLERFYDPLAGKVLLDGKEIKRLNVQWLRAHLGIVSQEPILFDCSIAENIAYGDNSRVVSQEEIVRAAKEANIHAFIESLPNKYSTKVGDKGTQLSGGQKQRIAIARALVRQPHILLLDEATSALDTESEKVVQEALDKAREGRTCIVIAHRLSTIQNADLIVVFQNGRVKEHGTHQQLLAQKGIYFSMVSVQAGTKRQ
T3 sequence (P08183 whole entry): as above
Chain of [^3H]MK-6240 binding in post-mortem Alzheimer’s disease (AD) brain tissue (P10636 623-758 limits assumed): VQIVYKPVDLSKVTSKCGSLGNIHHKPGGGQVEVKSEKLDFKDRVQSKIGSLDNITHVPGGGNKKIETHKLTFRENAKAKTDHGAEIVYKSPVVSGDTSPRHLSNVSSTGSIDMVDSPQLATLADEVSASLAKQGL
Chain of [^3H]PI-2620 binding in post-mortem Alzheimer’s disease (AD) brain tissue (P10636 623-695 limits assumed): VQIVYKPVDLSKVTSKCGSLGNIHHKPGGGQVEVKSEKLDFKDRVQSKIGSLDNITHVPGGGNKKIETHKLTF
T4 sequence (P05067 672-713 limits assumed): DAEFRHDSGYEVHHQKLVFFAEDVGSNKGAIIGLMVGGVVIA

| Ki [5] | % disappearance at 5 minutes relative to time zero [7] | % disappearance at 15 minutes relative to time zero [7] | % disappearance at 30 minutes relative to time zero [7] | Clearance Category [7] | half-life at 1 μM [7] | remaining at 5 min, 1 μM [7] | remaining at 0.5 h, 1 μM [7] | remaining activity at 0.03 µM [10] | remaining activity at 0.3 µM [10] | Structure (SMILES) | other results |
| --- | --- | --- | --- | --- | --- | --- | --- | --- | --- | --- | --- |
|  |  |  |  |  |  |  |  |  |  | F[C@@H]1CCN(c2ccc(-c3ccc4sc(-c5cccnc5)cc4n3)cn2)C1 [Asyn-44] | Kd [1]: 1.85 nM; Ki [2]: 9 nM |
|  |  |  |  |  |  |  |  |  |  | C[C@H]1O[C@@H](O[C@H]2[C@@H](O)C[C@H](O[C@H]3[C@@H](O)C[C@H](O[C@H]4CC[C@@]5(C)[C@H](CC[C@@H]6[C@@H]5C[C@@H](O)[C@]5(C)[C@@H](C7=CC(=O)OC7)CC[C@]65O)C4)O[C@@H]3C)O[C@@H]2C)C[C@H](O)[C@@H]1O [Digoxin] | recovery at 2 μM [3, 16]: 79.7%; recovery at 2 μM [3, 17]: 108%; Papp A→B at 2 μM [3]: 1.65 ×10⁻⁶ cm/s; Efflux Category [4]: Substrate of efflux; Permeability Category [4]: Low |
| 16 nM | 7.6% | 17.8% | 24.6% | Moderate | 75 min | 92.4% | 75.4% | 40% | 15% | O=C1NCc2nc(-c3cnc(N4CC[C@@H](F)C4)cn3)ccc21 [LMD-022] | Ki [6]: > 10000 nM; t1/2 [7]: 75.3 min; recovery at 2 μM [3, 16]: 61.9%; recovery at 2 μM [3, 17]: 120%; Papp A→B at 2 μM [3]: 40.6 ×10⁻⁶ cm/s; Papp B→A at 2 μM [3]: 37.6 ×10⁻⁶ cm/s; efflux ratio at 2 μM ([3]; MDR1-MDCK, read-out: Efflux Ratio (B→A/A→B)): 0.93; Efflux Category [4]: Not a substrate; Permeability Category [4]: High; Ki [8]: 2760 nM; Ki [9]: > 10000 nM; Ki [11]: > 10000 nM |
| 13 nM and 13.3 nM | 34.7% | 65.6% | 86.5% | High | 10.5 min | 65.3% | 13.5% | 36% | 13% | F[C@@H]1CCN(c2cnc(-c3ccc4scc(-c5cccnc5)c4n3)cn2)C1 [LMD-045] |  |
| 12 nM and 11.8 nM | 96.6% | 97.9% |  |  |  | 3.43% |  | 43% | 8% | F[C@@H]1CCN(c2ccc(-n3ncc4sc(-c5cncs5)cc43)cn2)C1 [LMD-046] | t1/2 [7]: unstable |
| 9.2 nM | 24.2% | 64.3% | 69.7% | High | 17 min | 75.8% | 30.3% | 38% | 4% | FC1CCN(c2cnc(-n3cc4sc(-c5cccnc5)cc4n3)cn2)CC1 [LMD-051] |  |
| 6 nM | 60.3% | 82.8% | 94.4% | High | 7.6 min | 39.7% | 5.61% | 27% | 2% | F[C@@H]1CCN(c2cc(-n3cc4sc(-c5cccnc5)cc4n3)ncn2)C1 [LMD-052] |  |
|  |  |  |  |  |  |  |  |  |  | CC(C)NCC(O)COc1cccc2ccccc12 (stereo not shown) [Propranolol] | recovery at 2 μM [3, 16]: 95%; recovery at 2 μM [3, 17]: 116%; Papp A→B at 2 μM [3]: 9.28 ×10⁻⁶ cm/s; Papp B→A at 2 μM [3]: 8.03 ×10⁻⁶ cm/s; Efflux Category [4]: Not a substrate; Permeability Category [4]: Medium |
|  |  |  |  |  |  |  |  |  |  | [11CH3]Oc1ccc(NC(=O)c2cnc(N3CCN(c4ccccn4)CC3)nc2N)cc1 [[^11C]M503-1619] | Ki [12]: 6.5 nM; Kd [13]: 1.5 nM |
|  |  |  |  |  |  |  |  |  |  | CNc1ccc(C#C/C=C/c2nc3ccc(OCC(O)C[18F])cc3s2)cn1 (stereo not shown) [[^18F]C05-05] | IC50 [14]: 1.5 nM |
|  |  |  |  |  |  |  |  |  |  | Cc1cc2nc(/C=C/c3ccc(O)c(Br)c3)sc2cc1N(C)CCOCC[18F] [[^18F]F0502B] | Kd [15]: 11 nM |
